# Experiments:
# [1] = system: CTG repeat in the 3′ UTR of human DMPK gene; assay: Dual-cut screening: CTG repeat excision efficiency by loss-of-signal ddPCR; type: cell-based; conditions: sgRNA pair, primary DM1 patient myoblasts; for Excision efficiency (by ddPCR): 3 μM DNA-PKi Compound 6 for 48 hours; for Excision efficiency by ddPCR (Vehicle): vehicle (DMSO)
# Protocol: RNPs were assembled with recombinant SluCas9 protein and chemically modified sgRNAs at a ratio of 1:3 (protein:sgRNA). For SINGLE-cut screening, RNP complexes were assembled with 30 pmol of SluCas9 and 90 pmol of sgRNA in P5 Primary Cell Nucleofector Solution (Lonza). After incubation at room temperature for 20 minutes, 10 μL of RNP complex were mixed with two hundred thousand of primary myoblasts resuspended in 10 μL of P5 Nucleofector Solution. For DOUBLE-cut screening, RNP complexes were first assembled for individual sgRNAs with 20 pmol of SluCas9 protein and 60 pmol of sgRNAs in 5 μL of P5 Nucleofector Solution. After incubation at room temperature for 20 minutes, the two RNP complexes (one for upstream sgRNA and one for downstream sgRNA) were mixed at 1:1 ratio and then further mixed with two hundred thousand of primary myoblasts resuspended in 10 μL of P5 Nucleofector Solution.
# The Nucleofector 96-well Shuttle System (Lonza) was used to deliver the SluCa9/sgRNA RNPs into primary DM1 patient myoblasts using the nucleofection program CM138. Following nucleofection, myoblasts from each well of nucleofection shuttle were split into six wells of the 96-well cell culture plate (Greiner, 655090) coated with matrigel. The first three wells were treated with DMSO for 48 hrs before changing to fresh myoblast growth medium, and the other three wells were treated with 3 μM of DNA-PKi Compound 6 for 48 hrs before changing to fresh myoblast growth medium. 72 hrs post nucleofection, two wells of DMSO-treated myoblasts and two wells of DNA-PKi-treated myoblasts from each nucleofection were harvested for genomic DNA extraction using the Kingfisher Flex purification system (Thermal Fisher), whereas one well of DMSO-treated myoblasts and one well of DNA-PKi-treated myoblasts were stained for RNA foci by FISH staining.
# The primers and probes of ddPCR are designed using the online primer design software Primer3Plus (http://www.bioinformatics.nl/cgi-bin/primer3plus/primer3plus.cgi). In some embodiments, two target primers/probe sets were used to detect CTG repeat excision, and a reference primers/probe set were used to amplify a region located in Exon 1 of human DMPK gene and to serve as a reference control for the target sets. The 24 μL of ddPCR reaction consists of 12 μL of Supermix for Probes (no dUTP) (Bio-Rad Laboratories), 1 μL of Reference primers mix (21.6 μM), 1 μL of Reference probe (6 μM), 1 μL of Target primers mix (21.6 μM), 1 μL of Target probe (6 μM), and 8 μL of sample genomic DNA. Droplets were generated using probe oil with the QX200 Droplet Generator (Bio-Rad Laboratories). Droplets were transferred to a 96-well PCR plate, sealed and cycled in a C1000 deep well Thermocycler (Bio-Rad Laboratories) under the following cycling protocol: 1 cycle at 95° C. for 10 min; 40 cycles of 94° C. for 30 see, and 58° C. for 1 min; 1 cycle at 98° C. for 10 min (for enzyme inactivation). The cycled plate was then transferred and read in the FAM and HEX channels using the Bio-Rad QX200 Droplet Reader (Bio-Rad Laboratories). ddPCR analysis is performed with the Bio-Rad QuantaSoft Pro Software.
# To assess the efficiency of SluCas9 sgRNA pairs for inducing CTG repeat excision, Dual-cut screening was performed in which individual SluCas9 sgRNAs and recombinant SluCas9 protein were assembled into ribonucleoprotein (RNP) and delivered into primary DM1 patient myoblasts. Nucleofected myoblasts were treated with either DMSO (vehicle) or 3 μM of DNA-dependent Protein Kinase Inhibitor (DNA-PKi) Compound 6 for 48 hours. 72 hours post-nucleofection, myoblasts were subjected to either genomic DNA isolation or RNA foci staining by fluorescence in situ hybridization (FISH).
# CRISPR repeat excision efficiency was assessed for each of the 88 pairs (FIG. 8A-B and Table 5). CTG repeat excision efficiency percentages are shown for vehicle (DMSO; white bars) and with DNA-PKi (black bars) (FIG. 8B and Table 5).
# [2] = system: CUG foci in primary DM1 patient myoblasts; assay: Dual-cut screening: FISH staining of CUG RNA foci; type: cell-based, human; conditions: sgRNA pair, primary DM1 patient myoblasts; for % of CUG foci free nuclei (DNA-PKi): 3 μM DNA-PKi Compound 6 for 48 hours; for % of CUG foci free nuclei (Vehicle): vehicle (DMSO)
# In short: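 SluCas9 RNPs (protein:sgRNA 1:3; 20 pmol SluCas9 + 60 pmol sgRNA per guide, paired 1:1) nucleofected into primary DM1 patient myoblasts, then DMSO or 3 μM DNA-PKi Compound 6 for 48 h. At 72 h post-nucleofection cells fixed, FISH-stained with Cy3-PNA(CAG)5 probe plus anti-MBNL1 and Hoechst; % CUG foci-free nuclei by high-content confocal imaging.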
substance,measurement,setting,value
"SluU06 + SluD48 (guide 1 TGTCTTCGACTCCGGGGCCCCG; guide 2 GAGAGCAGCGCAAGTGAGGAGG; guide RNA; listed as DNA, chemistry not fully specified)",Excision efficiency (by ddPCR),[1],63.33
same,Excision efficiency by ddPCR (Vehicle),[1],45.89
same,% of CUG foci free nuclei (DNA-PKi),[2],89.46%
same,% of CUG foci free nuclei (Vehicle),[2],66.88%
"SluU06 + SluD56 (guide 1 TGTCTTCGACTCCGGGGCCCCG; guide 2 CCAGCCGGCTCCGCCCGCTTCG; guide RNA; listed as DNA, chemistry not fully specified)",Excision efficiency (by ddPCR),[1],54.91
same,Excision efficiency by ddPCR (Vehicle),[1],31.65
same,% of CUG foci free nuclei (DNA-PKi),[2],85.13%
same,% of CUG foci free nuclei (Vehicle),[2],47.08%
"SluU06 + SluD68 (guide 1 TGTCTTCGACTCCGGGGCCCCG; guide 2 CCTGTAGCCTGTCAGCGAGTCG; guide RNA; listed as DNA, chemistry not fully specified)",Excision efficiency (by ddPCR),[1],62.99
same,Excision efficiency by ddPCR (Vehicle),[1],47.38
same,% of CUG foci free nuclei (DNA-PKi),[2],89.4%
same,% of CUG foci free nuclei (Vehicle),[2],64.01%
"SluU06 + SluD73 (guide 1 TGTCTTCGACTCCGGGGCCCCG; guide 2 CCAAAACGTGGATTGGGGTTGT; guide RNA; listed as DNA, chemistry not fully specified)",Excision efficiency (by ddPCR),[1],63.29
same,Excision efficiency by ddPCR (Vehicle),[1],43.4
same,% of CUG foci free nuclei (DNA-PKi),[2],88.37%
same,% of CUG foci free nuclei (Vehicle),[2],65.15%
"SluU06 + SluD83 (guide 1 TGTCTTCGACTCCGGGGCCCCG; guide 2 GTGGGGACAGACAATAAATACC; guide RNA; listed as DNA, chemistry not fully specified)",Excision efficiency (by ddPCR),[1],66.18
same,Excision efficiency by ddPCR (Vehicle),[1],46.13
same,% of CUG foci free nuclei (DNA-PKi),[2],89.45%
same,% of CUG foci free nuclei (Vehicle),[2],66.03%
"SluU06 + SluD100 (guide 1 TGTCTTCGACTCCGGGGCCCCG; guide 2 GTCCAGAGCTTTGGGCAGATGG; guide RNA; listed as DNA, chemistry not fully specified)",Excision efficiency (by ddPCR),[1],65.68
same,Excision efficiency by ddPCR (Vehicle),[1],40.89
same,% of CUG foci free nuclei (DNA-PKi),[2],87.37%
same,% of CUG foci free nuclei (Vehicle),[2],64.95%
"SluU08 + SluD06 (guide 1 GCCCCGTTGGAAGACTGAGTGC; guide 2 CCAGGCTGAGGCCCTGACGTGG; guide RNA; listed as DNA, chemistry not fully specified)",Excision efficiency (by ddPCR),[1],59.11
same,Excision efficiency by ddPCR (Vehicle),[1],46.6
same,% of CUG foci free nuclei (DNA-PKi),[2],86.69%
same,% of CUG foci free nuclei (Vehicle),[2],59.22%
"SluU08 + SluD14 (guide 1 GCCCCGTTGGAAGACTGAGTGC; guide 2 ATGGGCAAACTGCAGGCCTGGG; guide RNA; listed as DNA, chemistry not fully specified)",Excision efficiency (by ddPCR),[1],63.05
same,Excision efficiency by ddPCR (Vehicle),[1],45.12
same,% of CUG foci free nuclei (DNA-PKi),[2],82.09%
same,% of CUG foci free nuclei (Vehicle),[2],56.37%
"SluU08 + SluD18 (guide 1 GCCCCGTTGGAAGACTGAGTGC; guide 2 TGGAGGATGGAACACGGACGGC; guide RNA; listed as DNA, chemistry not fully specified)",Excision efficiency (by ddPCR),[1],63.55
same,Excision efficiency by ddPCR (Vehicle),[1],50.56
same,% of CUG foci free nuclei (DNA-PKi),[2],90.44%
same,% of CUG foci free nuclei (Vehicle),[2],67.06%
"SluU08 + SluD32 (guide 1 GCCCCGTTGGAAGACTGAGTGC; guide 2 CTTGTGCATGACGCCCTGCTCT; guide RNA; listed as DNA, chemistry not fully specified)",Excision efficiency (by ddPCR),[1],73.0215
same,Excision efficiency by ddPCR (Vehicle),[1],50.87
same,% of CUG foci free nuclei (DNA-PKi),[2],90.91%
same,% of CUG foci free nuclei (Vehicle),[2],74.1%
"SluU08 + SluD34 (guide 1 GCCCCGTTGGAAGACTGAGTGC; guide 2 CGCGCCAGACGCTCCCCAGAGC; guide RNA; listed as DNA, chemistry not fully specified)",Excision efficiency (by ddPCR),[1],69.47
same,Excision efficiency by ddPCR (Vehicle),[1],58.11
same,% of CUG foci free nuclei (DNA-PKi),[2],91.15%
same,% of CUG foci free nuclei (Vehicle),[2],77.93%
"SluU08 + SluD48 (guide 1 GCCCCGTTGGAAGACTGAGTGC; guide 2 GAGAGCAGCGCAAGTGAGGAGG; guide RNA; listed as DNA, chemistry not fully specified)",Excision efficiency (by ddPCR),[1],55.92
same,Excision efficiency by ddPCR (Vehicle),[1],42.14
same,% of CUG foci free nuclei (DNA-PKi),[2],87.63%
same,% of CUG foci free nuclei (Vehicle),[2],64.93%
"SluU08 + SluD56 (guide 1 GCCCCGTTGGAAGACTGAGTGC; guide 2 CCAGCCGGCTCCGCCCGCTTCG; guide RNA; listed as DNA, chemistry not fully specified)",Excision efficiency (by ddPCR),[1],52.26
same,Excision efficiency by ddPCR (Vehicle),[1],32.16
same,% of CUG foci free nuclei (DNA-PKi),[2],83.74%
same,% of CUG foci free nuclei (Vehicle),[2],46.21%
"SluU08 + SluD68 (guide 1 GCCCCGTTGGAAGACTGAGTGC; guide 2 CCTGTAGCCTGTCAGCGAGTCG; guide RNA; listed as DNA, chemistry not fully specified)",Excision efficiency (by ddPCR),[1],62.56
same,Excision efficiency by ddPCR (Vehicle),[1],42.63
same,% of CUG foci free nuclei (DNA-PKi),[2],88.24%
same,% of CUG foci free nuclei (Vehicle),[2],65.1%
"SluU08 + SluD73 (guide 1 GCCCCGTTGGAAGACTGAGTGC; guide 2 CCAAAACGTGGATTGGGGTTGT; guide RNA; listed as DNA, chemistry not fully specified)",Excision efficiency (by ddPCR),[1],67.61
same,Excision efficiency by ddPCR (Vehicle),[1],50.12
same,% of CUG foci free nuclei (DNA-PKi),[2],89.94%
same,% of CUG foci free nuclei (Vehicle),[2],65.42%
"SluU08 + SluD83 (guide 1 GCCCCGTTGGAAGACTGAGTGC; guide 2 GTGGGGACAGACAATAAATACC; guide RNA; listed as DNA, chemistry not fully specified)",Excision efficiency (by ddPCR),[1],70.46
same,Excision efficiency by ddPCR (Vehicle),[1],45.64
same,% of CUG foci free nuclei (DNA-PKi),[2],90.38%
same,% of CUG foci free nuclei (Vehicle),[2],68.14%
"SluU08 + SluD100 (guide 1 GCCCCGTTGGAAGACTGAGTGC; guide 2 GTCCAGAGCTTTGGGCAGATGG; guide RNA; listed as DNA, chemistry not fully specified)",Excision efficiency (by ddPCR),[1],66.38
same,Excision efficiency by ddPCR (Vehicle),[1],41.65
same,% of CUG foci free nuclei (DNA-PKi),[2],88.59%
same,% of CUG foci free nuclei (Vehicle),[2],66.31%
"SluU10 + SluD06 (guide 1 CCCGTTGGAAGACTGAGTGCCC; guide 2 CCAGGCTGAGGCCCTGACGTGG; guide RNA; listed as DNA, chemistry not fully specified)",Excision efficiency (by ddPCR),[1],63.05
same,Excision efficiency by ddPCR (Vehicle),[1],48.58
same,% of CUG foci free nuclei (DNA-PKi),[2],86.35%
same,% of CUG foci free nuclei (Vehicle),[2],61.37%
"SluU10 + SluD14 (guide 1 CCCGTTGGAAGACTGAGTGCCC; guide 2 ATGGGCAAACTGCAGGCCTGGG; guide RNA; listed as DNA, chemistry not fully specified)",Excision efficiency (by ddPCR),[1],61.58
same,Excision efficiency by ddPCR (Vehicle),[1],43.14
same,% of CUG foci free nuclei (DNA-PKi),[2],84.04%
same,% of CUG foci free nuclei (Vehicle),[2],62.95%

# — patent publication US20240173432A1, “Compositions and Methods for Treatment of Myotonic Dystrophy Type 1 with CRISPR/SluCas9” (Vertex Pharmaceuticals Incorporated, priority 2021, published 2024)
